Measurements reported in PMC8429736, “Pharmacological characterization of mutant huntingtin aggregate-directed PET imaging tracer candidates” (Scientific Reports, 2021).

Tests used:
[1] = target: zQ175 brain homogenates; assay: Whole brain homogenate RBA saturation binding, HOM zQ175; parameters: species or system mouse; details: HOM zQ175 12 months whole brain homogenate
Method: For RBA in vitro binding assays, brain tissue was sliced (50 µm), weighed and homogenized in PBS (Gibco, 14190-94), 0.1% BSA with a glass pestle (10 strokes) at a concentration of 12–15 mg wet tissue per mL buffer. The crude homogenate concentration was then adjusted to 10 mg/mL (wet tissue) and stored as single-use aliquots at -80 °C.
For saturation binding experiments, aggregate lysate preparation and final concentration in the assay, assay buffer, incubation times and plate processing were identical to the competition format. Radioligand was titrated up to 100 nM. Raw cpm were converted into nM using a calibration line of total added radioligand without washing and filtering (spiked onto the filter plate and dried) (e.g., X) and normalized to the concentration of protein (e.g., Y) to finally obtain […] (e.g., X/Y). Specific binding (SB) was calculated as full binding minus full competition (in the presence of excess unlabeled ligand) and a hyperbolic mono-phasic fit was applied using GraphPad Prism to determine Kd and Bmax.

[2] = target: T1, Exon1-Q46 aggregates (Homo sapiens, UniProt P42858, INS38QQQQQQQQQQQQQQQQQQQQQQQQQ); assay: RAFTA saturation binding, recombinant Exon1-Q46 aggregates
T1 construct: MBP-HTT(1-89)Q46-His(6x); MBP (N, cleaved yes); made in house; host or cells: E. coli BL21 (DE3)
T1 sequence (P42858 with tags, fused parts or gaps with the stated changes): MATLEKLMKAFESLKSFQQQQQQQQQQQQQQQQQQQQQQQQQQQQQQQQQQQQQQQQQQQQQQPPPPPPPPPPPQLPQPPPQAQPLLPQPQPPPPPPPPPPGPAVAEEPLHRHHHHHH

[3] = In vitro ARG, single concentration, WT mouse brain sections; assay type: binding; details: 0.5 nM
Method: Twenty µm-thick sections were prepared from brains of disease mouse models and WT mice or human post-mortem brain samples by using a cryostat, mounted on superfrost slides and stored at -80 °C for a maximum of 2 weeks. On the day of the experiment, slides were adapted to room temperature for 30 min and then equilibrated by immersion into assay buffer (50 mM Tris–HCl pH 7.4; 120 mM NaCl; 5 mM KCl; 2 mM CaCl2; 1 mM MgCl2) for 20 min at room temperature.
Radioligand solutions were prepared in assay buffer. Optimal radioligand concentrations were determined in advance based on signal-to-background ratio obtained in mouse or human brain tissue. The solutions were mixed in a Coplin jar (Sigma, S5516-6EA) by gently shaking at 175 rpm for 10 min at room temperature. Sections were incubated by immersion into assay buffer containing either only radioligand (total binding or TB) or radioligand plus 10 µM of unlabeled compound (non-specific binding or NSB) for 60 min at room temperature. Afterwards slides were washed three times for 10 min with ice-cold washing buffer (50 mM Tris–HCl (pH 7.4)) at 4 °C and dipped for three seconds in ice-cold distilled water to remove buffer salts. The slides were dried for 3 h at 30 °C and exposed for 96 h to a Tritium Phosphor Screen (GE Healthcare, Fuji BAS-TR 2025 E) Stored radiation energy on the screen was scanned using a Phosphorimager (GE Healthcare, Typhoon FLA 7000). Densitometric data analysis of radioligand binding was performed using the MCID Analysis 7.1 software (Interfocus Imaging Ltd.). Radioisotope concentration standards (American Radiolabeled Chemicals, ART 0123C and ART 0123B) were exposed with each specimen to enable conversion of density values into tissue-equivalent ligand concentrations (e.g., fmol/mg tissue). A standard curve was created to relate the system´s internal relative optical density measurement (ROD; an inverse logarithmic function of gray level values) to the set of standard values (e.g., isotope concentration). The standard´s isotope concentration (e.g., nCi/mg) is therefore converted into tissue-equivalent ligand concentrations (e.g., fmol/mg tissue) by referring to the radioligand´s specific activity (e.g., Ci/mmol) and including decay-correction. After phosphor screen exposure the human brain sections were stained for 4 min with 0.1% toluidine blue dye solution (Sigma-Aldrich) and rinsed twice in distilled water. To differentiate gray and white matter, the slides were decolorized with 70% ethanol (Merck) for 2–5 min followed by rinse in distilled water. Gray matter appears as gray color and white matter as bluish.

[4] = target: beta amyloid plaques (6E10 antibody) (Homo sapiens, UniProt P05067); assay: HR ARG co-registration with 6E10 antibody, human AD brain sections; assay type: binding; details: 10 nM CHDI-180, 10 nM CHDI-626, 0.1 nM PiB, 1 nM T808
beta amyloid plaques (6E10 antibody), sequence (P05067 672-713 limits assumed): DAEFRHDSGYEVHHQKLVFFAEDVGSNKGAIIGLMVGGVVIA

[5] = parameters: method as in PMID 34351166, PMID 32662649; details: cited from earlier work

**Q.** For `COc1ccc(COc2ccc3oc(-c4ccc(=O)n(C)n4)nc3c2)nc1` [CHDI-180], which Kd [1] is on record?
**A.** The Kd was 2.4 nM.

**Q.** What about the “RBA Bmax” value ([1]; per mg tissue) of the same molecule?
**A.** Its value is 34.0 fmol/mg.

**Q.** And the Kd [2]?
**A.** The Kd was 5.6 nM.

**Q.** And the “RAFTA Bmax” value [2]?
**A.** Its value is 1456 fmol/mg.

**Q.** And the NSB ([3]; 3 month WT, CTX)?
**A.** Its NSB is 0.6 ± 0.5 fmol/mg.

**Q.** What about the SB ([3]; 3 month WT, CTX) of the same molecule?
**A.** Its SB is 1.3 ± 1.0 fmol/mg.

**Q.** And the TB ([3]; 3 month WT, CTX)?
**A.** The TB was 1.9 ± 0.5 fmol/mg.

**Q.** And the NSB ([3]; 3 month WT, HPC)?
**A.** The NSB was 0.5 ± 0.6 fmol/mg.

**Q.** And the SB ([3]; 3 month WT, HPC)?
**A.** The SB was 1.6 ± 0.6 fmol/mg.

**Q.** What about the TB ([3]; 3 month WT, HPC) of the same molecule?
**A.** The TB was 2.0 ± 0.4 fmol/mg.

**Q.** What about the NSB ([3]; 3 month WT, STR) of the same molecule?
**A.** Its NSB is 0.7 ± 0.6 fmol/mg.

**Q.** And the SB ([3]; 3 month WT, STR)?
**A.** Its SB is 1.1 ± 0.4 fmol/mg.

**Q.** And the TB ([3]; 3 month WT, STR)?
**A.** The TB was 1.8 ± 0.3 fmol/mg.

**Q.** And the NSB ([3]; 6 month WT, CTX)?
**A.** Its NSB is 0.5 ± 0.6 fmol/mg.

**Q.** What about the SB ([3]; 6 month WT, CTX) of the same molecule?
**A.** Its SB is 1.2 ± 0.5 fmol/mg.

**Q.** And the TB ([3]; 6 month WT, CTX)?
**A.** Its TB is 1.8 ± 0.1 fmol/mg.

**Q.** What about the NSB ([3]; 6 month WT, HPC) of the same molecule?
**A.** The NSB was 0.6 ± 0.8 fmol/mg.

**Q.** What about the SB ([3]; 6 month WT, HPC) of the same molecule?
**A.** Its SB is 1.5 ± 0.1 fmol/mg.

**Q.** And the TB ([3]; 6 month WT, HPC)?
**A.** Its TB is 2.2 ± 0.7 fmol/mg.

**Q.** What about the NSB ([3]; 6 month WT, STR) of the same molecule?
**A.** The NSB was 0.4 ± 0.5 fmol/mg.

**Q.** What about the SB ([3]; 6 month WT, STR) of the same molecule?
**A.** Its SB is 1.6 ± 0.1 fmol/mg.

**Q.** What about the TB ([3]; 6 month WT, STR) of the same molecule?
**A.** Its TB is 2.0 ± 0.6 fmol/mg.

**Q.** And the NSB ([3]; 9 month WT, CTX)?
**A.** Its NSB is 0.1 ± 0.2 fmol/mg.

**Q.** And the SB ([3]; 9 month WT, CTX)?
**A.** The SB was 1.2 ± 0.2 fmol/mg.

**Q.** And the TB ([3]; 9 month WT, CTX)?
**A.** The TB was 1.3 ± 0.4 fmol/mg.

**Q.** What about the NSB ([3]; 9 month WT, HPC) of the same molecule?
**A.** The NSB was 0.6 ± 0.8 fmol/mg.

**Q.** What about the SB ([3]; 9 month WT, HPC) of the same molecule?
**A.** The SB was 1.1 ± 0.5 fmol/mg.

**Q.** And the TB ([3]; 9 month WT, HPC)?
**A.** The TB was 1.8 ± 0.5 fmol/mg.

**Q.** And the NSB ([3]; 9 month WT, STR)?
**A.** Its NSB is 0.0 ± 0.0 fmol/mg.

**Q.** And the SB ([3]; 9 month WT, STR)?
**A.** Its SB is 1.6 ± 0.1 fmol/mg.

**Q.** And the TB ([3]; 9 month WT, STR)?
**A.** The TB was 1.6 ± 0.1 fmol/mg.

**Q.** What about the NSB ([3]; 12 month WT, CTX) of the same molecule?
**A.** Its NSB is 0.1 ± 0.1 fmol/mg.

**Q.** What about the SB ([3]; 12 month WT, CTX) of the same molecule?
**A.** The SB was 1.2 ± 0.2 fmol/mg.

**Q.** What about the TB ([3]; 12 month WT, CTX) of the same molecule?
**A.** The TB was 1.3 ± 0.3 fmol/mg.

**Q.** What about the NSB ([3]; 12 month WT, HPC) of the same molecule?
**A.** Its NSB is 0.0 ± 0.1 fmol/mg.

**Q.** And the SB ([3]; 12 month WT, HPC)?
**A.** Its SB is 1.6 ± 0.5 fmol/mg.

**Q.** What about the TB ([3]; 12 month WT, HPC) of the same molecule?
**A.** Its TB is 1.6 ± 0.4 fmol/mg.

**Q.** What about the NSB ([3]; 12 month WT, STR) of the same molecule?
**A.** Its NSB is 0.2 ± 0.2 fmol/mg.

**Q.** And the SB ([3]; 12 month WT, STR)?
**A.** The SB was 1.2 ± 0.2 fmol/mg.

**Q.** What about the TB ([3]; 12 month WT, STR) of the same molecule?
**A.** The TB was 1.3 ± 0.0 fmol/mg.

**Q.** And the “co-registration with 6E10-positive beta amyloid plaques” value [4]?
**A.** Its value is “low density binding”.

**Q.** What about the “plasma, microsomal, and hepatocyte stability” value [5] of the same molecule?
**A.** The value was “acceptable”.
